From ChEMBL document CHEMBL1131349, “4-[(1H-imidazol-4-yl) methyl] benzamidines and benzylamidines: novel antagonists of the histamine H3 receptor” (Bioorg Med Chem Lett, 1998) come the findings set out here.

Sequence of Histamine H3 receptor (Q9JI35 whole entry): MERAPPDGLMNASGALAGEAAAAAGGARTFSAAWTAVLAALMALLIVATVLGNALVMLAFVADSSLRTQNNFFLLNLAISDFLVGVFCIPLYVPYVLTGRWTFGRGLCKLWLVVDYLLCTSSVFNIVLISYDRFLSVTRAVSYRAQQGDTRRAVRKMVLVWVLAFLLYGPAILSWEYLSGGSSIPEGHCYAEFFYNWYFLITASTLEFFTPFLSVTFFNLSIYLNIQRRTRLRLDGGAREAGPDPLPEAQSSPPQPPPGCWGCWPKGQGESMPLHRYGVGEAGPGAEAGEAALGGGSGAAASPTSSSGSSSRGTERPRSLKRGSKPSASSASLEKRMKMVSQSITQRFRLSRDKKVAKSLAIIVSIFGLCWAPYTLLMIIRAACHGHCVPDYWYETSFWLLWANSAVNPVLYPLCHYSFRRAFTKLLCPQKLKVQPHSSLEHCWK
Sequence of Histamine H3 receptor (Cavia porcellus) (Q9JI35 whole entry): as above

The subject of one experiment is Cavia porcellus. In words: In vivo antihistaminic (Histamine H3) activity was determined in guinea pig.
Settings: not given
The experiment is classed as functional.
A word on the ED50: it is the midpoint of the dose-response relation. Lower therefore signals an effect at a small dose. Take `N=C(NCc1ccc(Cl)cc1)c1ccc(Cc2c[nH]cn2)cc1`: the ED50 turned out to be 0.3 mg/kg.

On to `N=C(Cc1ccc(Cc2c[nH]cn2)cc1)NCc1ccc(Cl)cc1`, for which it took a dose of 0.3 mg/kg to reach the 50% effect level (ED50).

Molecule `S=C(NC1CCCCC1)N1CCC(c2cnc[nH]2)CC1` [THIOPERAMIDE] registered a 50% effective dose (ED50) of 0.4 mg/kg.

Another experiment addresses Histamine H3 receptor (Cavia porcellus, UniProt Q9JI35). The experiment can be described thus: Inhibition of N-alpha-methylhistamine binding to histamine H3 receptor of guinea pig brain membranes.
Settings: not given
The Ki is a dissociation constant, usually derived from enzyme kinetics or from competition with a known ligand. Take `COc1ccc(C/N=C(\N)c2ccc(Cc3c[nH]cn3)cc2)cc1`: the affinity, expressed as Ki, was 513 nM.

Turning to `N=C(N)c1cccc(-c2c[nH]cn2)c1`, affinity was put at a Ki of 350 nM.

`N=C(N)c1ccc(CCc2cnc[nH]2)cc1` displayed a Ki of 165 nM.

Take `N=C(CCc1ccc(Cc2cnc[nH]2)cc1)NCc1ccc(Cl)cc1`: the affinity corresponds to a Ki of 175 nM.

`N=C(NCc1ccc(Cl)cc1)c1ccc(Cc2c[nH]cn2)cc1` showed an inhibition constant Ki of 16 nM.

For `N=C(N)CCCc1c[nH]cn1`, the affinity, expressed as Ki, was 1.2 nM.

Molecule `S=C(NC1CCCCC1)N1CCC(c2cnc[nH]2)CC1` [THIOPERAMIDE] came in with a Ki of 7.3 nM.

The next experiment has as its target Histamine H3 receptor (Cavia porcellus) (UniProt Q9JI35). The experiment can be described thus: Compound was tested for inhibition of N-alpha-methylhistamine binding to histamine H3 receptor in guinea pig brain membranes. The experiment is classed as cell membranes. To be noted: Membrane, concentration not given here.
A word on the inhibition: it is how much of the control response was suppressed. For `N=C(NCc1ccncc1)c1ccc(Cc2c[nH]cn2)cc1`, the inhibition worked out at 44%.

In turn, `N=C(N)c1ccc(-c2c[nH]cn2)cc1` came in with an inhibition of 49%.

The test system of another experiment is Cavia porcellus. The experiment can be described thus: Percent inhibition of histamine H3 mediated antihistaminic activity in guinea pig was determined in vivo.
Settings: not given
The experiment is classed as functional.
As usually defined, the Inhibition is how much of the control response was suppressed. A low value points to little suppression. The molecule `N=C(N)c1ccc(Cc2c[nH]cn2)cc1` yielded an Inhibition of 33%.
